Experimental data taken from ChEMBL document CHEMBL1201862, “PubChem BioAssay data set” (2004).
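Compound exposure: 48 hours, 5 concentrations, 96-well plates. GI50 marks 50% less growth.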 Active and inactive are the calls of the source. Cut-off read from the data, not from the text of the source: active = GI50 up to about 1.1 µM and inactive = higher.

How the values were obtained:
Test in all cases: NCI tumour cell line growth inhibition, 48 h
786-0 = test system: 786-0
A498 = test system: A498
A549 = test system: A549
ACHN = test system: ACHN
CAKI-1 = test system: CAKI-1
CCRF-CEM = test system: CCRF-CEM
COLO 205 = test system: COLO 205
DMS-114 = test system: DMS-114
DMS-273 = test system: DMS-273
EKVX = test system: EKVX
HCC 2998 = test system: HCC 2998
HCT-116 = test system: HCT-116
HCT-15 = test system: HCT-15
HL-60 = test system: HL-60
HOP-62 = test system: HOP-62
HT-29 = test system: HT-29
IGROV-1 = test system: IGROV-1
K562 = test system: K562
KM-20L2 = test system: KM-20L2
KM12 = test system: KM12
LOX IMVI = test system: LOX IMVI
LXFL 529 = test system: LXFL 529
M14 = test system: M14
M19-MEL = test system: M19-MEL
MOLT-4 = test system: MOLT-4
Malme-3M = test system: Malme-3M
NCI-H23 = test system: NCI-H23
NCI-H460 = test system: NCI-H460
NCI-H522 = test system: NCI-H522
OVCAR-3 = test system: OVCAR-3
OVCAR-4 = test system: OVCAR-4
OVCAR-8 = test system: OVCAR-8
RPMI-8226 = test system: RPMI-8226
RXF 393 = test system: RXF 393
SF-268 = test system: SF-268
SF-295 = test system: SF-295
SF-539 = test system: SF-539
SK-MEL-28 = test system: SK-MEL-28
SK-MEL-2 = test system: SK-MEL-2
SK-MEL-5 = test system: SK-MEL-5
SK-OV-3 = test system: SK-OV-3
SN12C = test system: SN12C
SNB-19 = test system: SNB-19
SNB-75 = test system: SNB-75
SNB-78 = test system: SNB-78
SR = test system: SR
SW-620 = test system: SW-620
TK-10 = test system: TK-10
U-251 = test system: U-251
UACC-257 = test system: UACC-257
UACC-62 = test system: UACC-62
UO-31 = test system: UO-31

CSCC(COC(C)=O)(CSC)c1ccncc1
GI50 (786-0): > 100 µM (inactive)
GI50 (A498): > 100 µM (inactive)
GI50 (A549): > 100 µM (inactive)
GI50 (ACHN): > 100 µM (inactive)
GI50 (CAKI-1): > 100 µM (inactive)
GI50 (CCRF-CEM): > 100 µM (inactive)
GI50 (COLO 205): > 100 µM (inactive)
GI50 (DMS-114): > 100 µM (inactive)
GI50 (DMS-273): > 100 µM (inactive)
GI50 (EKVX): > 100 µM (inactive)
GI50 (HCC 2998): > 100 µM (inactive)
GI50 (HCT-116): > 100 µM (inactive)
GI50 (HCT-15): > 100 µM
GI50 (HL-60): > 100 µM (inactive)
GI50 (HOP-62): > 100 µM (inactive)
GI50 (HT-29): > 100 µM (inactive)
GI50 (IGROV-1): > 100 µM (inactive)
GI50 (K562): > 100 µM (inactive)
GI50 (KM-20L2): > 100 µM (inactive)
GI50 (KM12): > 100 µM (inactive)
GI50 (LOX IMVI): > 100 µM (inactive)
GI50 (LXFL 529): > 100 µM (inactive)
GI50 (M14): > 100 µM (inactive)
GI50 (M19-MEL): > 100 µM (inactive)
GI50 (MOLT-4): > 100 µM (inactive)
GI50 (Malme-3M): > 100 µM (inactive)
GI50 (NCI-H23): > 100 µM (inactive)
GI50 (NCI-H460): > 100 µM (inactive)
GI50 (NCI-H522): > 100 µM (inactive)
GI50 (OVCAR-3): > 100 µM (inactive)
GI50 (OVCAR-4): > 100 µM (inactive)
GI50 (OVCAR-8): > 100 µM (inactive)
GI50 (RPMI-8226): > 100 µM (inactive)
GI50 (RXF 393): > 100 µM (inactive)
GI50 (SF-268): > 100 µM (inactive)
GI50 (SF-295): > 100 µM (inactive)
GI50 (SF-539): > 100 µM (inactive)
GI50 (SK-MEL-28): > 100 µM (inactive)
GI50 (SK-MEL-2): > 100 µM (inactive)
GI50 (SK-MEL-5): 53.6 µM (inactive)
GI50 (SK-OV-3): > 100 µM (inactive)
GI50 (SN12C): > 100 µM (inactive)
GI50 (SNB-19): > 100 µM (inactive)
GI50 (SNB-75): 85.7 µM (inactive)
GI50 (SNB-78): > 100 µM (inactive)
GI50 (SR): > 100 µM (inactive)
GI50 (SW-620): > 100 µM (inactive)
GI50 (TK-10): > 100 µM (inactive)
GI50 (U-251): > 100 µM (inactive)
GI50 (UACC-257): > 100 µM (inactive)
GI50 (UACC-62): > 100 µM (inactive)
GI50 (UO-31): > 100 µM (inactive)
